According to PubChem BioAssay (NCI):
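Values below derive from 48-hour exposures of cells grown in 96-well plates, with endpoints linearly interpolated between the two concentrations bracketing the appropriate inhibition level. GI50 marks 50% less growth. TGI: total growth inhibition.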

Key:
Test in all cases: NCI-60 cell line screen, 48 h
[1] = tested on: U251 CNS
[2] = tested on: SNB-19 CNS
[3] = tested on: UO-31 renal
[4] = tested on: SF-539 CNS
[5] = tested on: MALME-3M melanoma
[6] = tested on: COLO 205 colon
[7] = tested on: ACHN renal
[8] = tested on: SK-MEL-28 melanoma
[9] = tested on: UACC-257 melanoma
[10] = tested on: HCC-2998 colon
[11] = tested on: OVCAR-3 ovarian
[12] = tested on: SF-268 CNS
[13] = tested on: EKVX NSCLC
[14] = tested on: SNB-75 CNS
[15] = tested on: NCI-H460 lung
[16] = tested on: NCI-H23 lung
[17] = tested on: IGROV1 ovarian
[18] = tested on: MDA-MB-435
[19] = tested on: SN12C renal
[20] = tested on: SK-MEL-5 melanoma
[21] = tested on: A549 NSCLC
[22] = tested on: UACC-62 melanoma
[23] = tested on: 786-0 renal
[24] = tested on: PC-3 prostate
[25] = tested on: LOX IMVI melanoma
[26] = tested on: NCI/ADR-RES ovarian
[27] = tested on: OVCAR-5 ovarian
[28] = tested on: HCT-15 colon
[29] = tested on: CAKI-1 renal
[30] = tested on: OVCAR-4 ovarian
[31] = tested on: TK-10 renal
[32] = tested on: DU-145 prostate
[33] = tested on: KM12 colon
[34] = tested on: SW-620 colon
[35] = tested on: HOP-62 NSCLC
[36] = tested on: HS 578T breast
[37] = tested on: MCF7 breast
[38] = tested on: BT-549 breast
[39] = tested on: SK-OV-3 ovarian
[40] = tested on: RXF 393 renal
[41] = tested on: SF-295 CNS
[42] = tested on: MDA-MB-231 breast
[43] = tested on: K-562 leukemia
[44] = tested on: T-47D breast
[45] = tested on: M14 melanoma
[46] = tested on: A498 renal
[47] = tested on: HOP-92 NSCLC
[48] = tested on: MOLT-4 leukemia
[49] = tested on: NCI-H522 lung
[50] = tested on: RPMI-8226 leukemia
[51] = tested on: NCI-H226 lung
[52] = tested on: HT29 colon
[53] = tested on: OVCAR-8 ovarian
[54] = tested on: HCT-116 colon
[55] = tested on: SK-MEL-2 melanoma

With `Cc1c(C)n(CCCN2CCN(C)CC2)c2ccc(Oc3cccc(C(=O)N4CCN(CCc5ccc(F)cc5)CC4)c3)cc12` the GI50 [1] was 1.66 µM, the TGI [1] was 3.28 µM and the GI50 [2] was 1.75 µM. The TGI [2] was 3.31 µM, the GI50 [3] was 1.23 µM and the TGI [3] was 2.52 µM. The GI50 [4] was 1.63 µM, the TGI [4] was 3.03 µM and the GI50 [5] was 1.78 µM. For the same compound, the TGI [5] was 3.32 µM, the GI50 [6] was 1.97 µM and the TGI [6] was 3.8 µM. The GI50 [7] was 1.67 µM, the TGI [7] was 3.06 µM and the GI50 [8] was 1.78 µM. For the same compound, the TGI [8] was 3.24 µM, the GI50 [9] was 1.88 µM and the TGI [9] was 3.72 µM. The GI50 [10] was 1.81 µM, the TGI [10] was 3.37 µM and the GI50 [11] was 1.82 µM. The TGI [11] was 3.39 µM, the GI50 [12] was 1.79 µM and the TGI [12] was 3.78 µM. It also gave a GI50 [13] of 1.65 µM, a TGI [13] of 3.12 µM and a GI50 [14] of 1.39 µM. The TGI [14] was 2.85 µM, the GI50 [15] was 1.86 µM and the TGI [15] was 3.45 µM. It also gave a GI50 [16] of 1.85 µM, a TGI [16] of 3.49 µM and a GI50 [17] of 1.57 µM. The TGI [17] was 3.16 µM, the GI50 [18] was 1.78 µM and the TGI [18] was 3.33 µM. For the same compound, the GI50 [19] was 1.54 µM, the TGI [19] was 3.09 µM and the GI50 [20] was 1.71 µM. For the same compound, the TGI [20] was 3.08 µM, the GI50 [21] was 1.81 µM and the TGI [21] was 3.62 µM. The GI50 [22] was 1.87 µM, the TGI [22] was 3.58 µM and the GI50 [23] was 1.53 µM. The TGI [23] was 2.95 µM, the GI50 [24] was 1.06 µM and the TGI [24] was 2.61 µM. The GI50 [25] was 1.75 µM, the TGI [25] was 3.19 µM and the GI50 [26] was 1.79 µM. It also gave a TGI [26] of 3.54 µM, a GI50 [27] of 1.58 µM and a TGI [27] of 3 µM. The GI50 [28] was 1.59 µM, the TGI [28] was 3.09 µM and the GI50 [29] was 1.77 µM. For the same compound, the TGI [29] was 3.46 µM, the GI50 [30] was 1.84 µM and the TGI [30] was 3.92 µM. It also gave a GI50 [31] of 1.62 µM, a TGI [31] of 3.23 µM and a GI50 [32] of 1.86 µM. For the same compound, the TGI [32] was 3.6 µM, the GI50 [33] was 1.93 µM and the TGI [33] was 3.64 µM. The GI50 [34] was 1.77 µM, the TGI [34] was 3.28 µM and the GI50 [35] was 1.63 µM. The TGI [35] was 3.34 µM, the GI50 [36] was 2.05 µM and the TGI [36] was 4.51 µM. The GI50 [37] was 1.59 µM, the TGI [37] was 3.22 µM and the GI50 [38] was 1.58 µM. For the same compound, the TGI [38] was 3.19 µM, the GI50 [39] was 1.91 µM and the TGI [39] was 3.62 µM. It also gave a GI50 [40] of 1.59 µM, a TGI [40] of 3.06 µM and a GI50 [41] of 1.85 µM. It also gave a TGI [41] of 3.33 µM, a GI50 [42] of 1.82 µM and a TGI [42] of 3.43 µM.

In the case of `CC1=C(C#N)C(=C(C#N)C#N)OC1(C)Cc1ccccc1` (configuration not stated), the TGI [1] was > 100 µM, the TGI [43] was > 100 µM and the TGI [2] was > 100 µM. For the same compound, the TGI [3] was 37 µM, the TGI [4] was > 100 µM and the TGI [6] was 43 µM. For the same compound, the TGI [7] was 32.7 µM, the TGI [44] was 85.6 µM and the TGI [8] was > 100 µM. The TGI [45] was > 100 µM, the TGI [9] was > 100 µM and the TGI [10] was 89.6 µM. The TGI [46] was > 100 µM, the TGI [11] was 74.9 µM and the TGI [47] was 38.6 µM. The TGI [12] was > 100 µM, the TGI [13] was > 100 µM and the TGI [14] was > 100 µM. For the same compound, the TGI [48] was 67.3 µM, the TGI [16] was > 100 µM and the TGI [49] was 36.8 µM. For the same compound, the TGI [17] was > 100 µM, the TGI [18] was > 100 µM and the TGI [19] was > 100 µM. For the same compound, the TGI [20] was > 100 µM, the TGI [21] was > 100 µM and the TGI [22] was 50.4 µM. The TGI [23] was > 100 µM, the TGI [24] was > 100 µM and the TGI [25] was 41 µM. The TGI [26] was > 100 µM, the TGI [27] was > 100 µM and the TGI [28] was 83 µM. For the same compound, the TGI [29] was 50.9 µM, the TGI [50] was 96.8 µM and the TGI [30] was 60.3 µM. The TGI [51] was 59.3 µM, the TGI [31] was > 100 µM and the TGI [32] was > 100 µM. For the same compound, the TGI [52] was 78.6 µM, the TGI [33] was > 100 µM and the TGI [34] was > 100 µM. The TGI [35] was > 100 µM, the TGI [53] was > 100 µM and the TGI [36] was > 100 µM. For the same compound, the TGI [54] was > 100 µM, the TGI [37] was > 100 µM and the TGI [38] was > 100 µM. The TGI [39] was > 100 µM, the TGI [40] was 37.6 µM and the TGI [55] was > 100 µM. For the same compound, the TGI [41] was > 100 µM and the TGI [42] was > 100 µM.
